Assay results: patent publication US20190376971A1, “Compositions and Methods for the Assessment of Drug Target Occupancy for Bruton's Tyrosine Kinase” (Acerta Pharma B.V., priority 2017, published 2019)

Columns and labels:
BTK [1] = molecular target: T1, BTK (Homo sapiens, UniProt Q06187); assay: BTK IMAP (immobilized metal ion affinity-based fluorescence polarization) assay; format: biochemical; set-up: endogenous in cells; host or cells: Ramos B cells (Ramos.2G6.4C10); details: 5 μM ATP, 60 min pre-incubation, read-out: IC50 for BTK inhibition
Method: In summary, BTK enzyme activity is measured using the IMAP (immobilized metal ion affinity-based fluorescence polarization) assay as outlined below. […] After 60 minutes of incubation at room temperature in the dark, the FP signal is read. Fluorescence at 535 nm is measured using parallel and perpendicular filters to determine differences in rotation due to binding of the phosphorylated substrate peptide to the beads. Values are calculated as a percentage of the difference in readout (ΔmPi) of the controls with and without ATP.
Inhibition of the activity of the protein kinase BTK can be measured with the assay described in this protocol. […] The method is based on IMAP, which is a homogeneous fluorescence polarization (FP) assay based on affinity capture of phosphorylated peptide substrates. […]
Target sequence in this assay (Q06187 whole entry): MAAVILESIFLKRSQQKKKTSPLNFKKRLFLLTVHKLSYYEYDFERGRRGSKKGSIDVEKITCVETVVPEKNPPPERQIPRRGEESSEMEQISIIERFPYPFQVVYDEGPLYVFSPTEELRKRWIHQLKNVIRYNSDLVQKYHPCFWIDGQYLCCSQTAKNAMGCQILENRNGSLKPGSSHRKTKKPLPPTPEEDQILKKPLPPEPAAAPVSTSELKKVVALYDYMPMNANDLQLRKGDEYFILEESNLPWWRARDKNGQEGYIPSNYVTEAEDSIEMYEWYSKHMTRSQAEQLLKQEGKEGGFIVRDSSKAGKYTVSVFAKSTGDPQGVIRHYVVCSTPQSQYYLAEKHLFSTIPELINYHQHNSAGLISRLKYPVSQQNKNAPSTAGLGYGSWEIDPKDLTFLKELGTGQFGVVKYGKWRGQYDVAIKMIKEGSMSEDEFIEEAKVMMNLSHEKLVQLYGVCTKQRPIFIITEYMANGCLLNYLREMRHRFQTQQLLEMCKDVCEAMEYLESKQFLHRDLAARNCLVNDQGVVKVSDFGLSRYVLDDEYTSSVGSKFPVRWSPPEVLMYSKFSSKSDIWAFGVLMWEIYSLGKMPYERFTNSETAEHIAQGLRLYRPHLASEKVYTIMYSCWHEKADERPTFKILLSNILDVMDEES

BTK [2] = molecular target: T1, BTK; assay: Binding of biotin probes to recombinant BTK, Western blot with Streptavadin-HRP; details: PBS, lysis buffer 1 or lysis buffer 2
Method: For the biotin probes (such as Formula (3) and Formula (4)), samples are run using SDS-PAGE gel, followed by transferring the protein to a polyvinylidene fluoride (PVDF) membrane by Western blotting. Subsequently, the blot is blocked overnight at 4° C. in TBS-T (10 mM TRIS pH 7.4, 100 mM NaCl, 0.1% Tween 20)+2.5% (w/v) skimmed milk powder). The blot is washed 4× with TBS-T and then incubated with Streptavadin-HRP for 1 hour at room temperature. The blot is washed again 4× with TBS-T before adding the chemiluminescent substrate, followed by measurement of the chemiluminescence signal.
SDS-PAGE procedures are known to those of ordinary skill in the art. A non-limiting example of a SDS-PAGE procedure is as follows: • 1. Add 1.1 μL of probe to 10 μL of each sample (recombinant BTK or cell lysate); final probe concentration 0.1 μM. • 2. Incubate 2 hour at room temperature. • 3. Add 4 μL sample buffer/DTT (200 μM) and incubate for 5 minutes at 95° C. • 4. Vortex and keep on ice until loading on gel. • 5. […] For the samples on gel with the fluorescent probe, the gels are measured directly using an imager suitable for measuring the fluorescent label on the probes (e.g., E tan Imager; GE Healthcare (Cy2: 480/30 excitation, 530/40 emission, Cy3: 544 excitation, 570 emission). • 9. For the biotin labeled probes, the gel is blotted to a PVDF membrane, using the Western blot procedure below. […]
Target sequence in this assay (Q06187 whole entry, species assumed): as the sequence (Q06187 whole entry) above

BTK [3] = molecular target: T1, BTK; assay: Binding of BODIPY/fluorescent probes to recombinant BTK, SDS-PAGE in-gel fluorescence; details: probe 0.1 μM, 2 hours
Method: To test different BTK target occupancy probes and lysis buffers, probes were incubated with recombinant BTK protein for 2 hours and subsequently run using sodium dodecyl sulfate polyacrylamide gel electrophoresis (SDS PAGE). When using the boron-dipyrromethene (BODIPY) tagged probes (such as Formula (5) and Formula (6)), the gel is measured directly using a fluorescence imager. BTK probe (final concentration 0.1 μM) is incubated with 125 ng BTK for 2 hours at room temperature. Afterwards, sample buffer is added and run on a SDS-PAGE gel. Fluorescent probes such as Formula (5) and Formula (6) are quantified in gel using the E tan Imager from GE Healthcare, suitable for the emission and detection of fluorescent signal for BODIPY tags.
SDS-PAGE procedures are known to those of ordinary skill in the art. A non-limiting example of a SDS-PAGE procedure is as follows: • 1. Add 1.1 μL of probe to 10 μL of each sample (recombinant BTK or cell lysate); final probe concentration 0.1 μM. • 2. Incubate 2 hour at room temperature. • 3. Add 4 μL sample buffer/DTT (200 μM) and incubate for 5 minutes at 95° C. • 4. Vortex and keep on ice until loading on gel. • 5. Spin down shortly and load 15 μL on a 12 slot Novex gradient gel (4-12% Bis-Tris gel). • 6. Run in NuPage MOPS SDS running buffer. • 7. After running the samples on gel, remove the gel from the surelock holder. • 8. For the samples on gel with the fluorescent probe, the gels are measured directly using an imager suitable for measuring the fluorescent label on the probes (e.g., E tan Imager; GE Healthcare (Cy2: 480/30 excitation, 530/40 emission, Cy3: 544 excitation, 570 emission). • 9. For the biotin labeled probes, the gel is blotted to a PVDF membrane, using the Western blot procedure below.
Target sequence in this assay (Q06187 whole entry, species assumed): as the sequence (Q06187 whole entry) above

[4] = lysis buffer 2 (1% Triton X100)

| IC50 (BTK [1]) | signal of biotin probe bound to BTK (Streptavadin-HRP chemiluminescence) (BTK [2]) | binding to recombinant BTK (fluorescence signal in gel) (BTK [3]; PBS or lysis buffer 1) | binding to recombinant BTK (fluorescence signal in gel) (BTK [3]; [4]) | SMILES |
| --- | --- | --- | --- | --- |
| 3.4 nM | stronger signal |  |  | Nc1nccn2c([C@@H]3CCCCN3C(=O)/C=C/CN3CCN(CCNC(=O)CCCC(=O)NCCCOCCOCCOCCCNC(=O)CCCC[C@@H]4SC[C@@H]5NC(=O)N[C@@H]54)CC3)nc(-c3ccc(C(=O)Nc4ccccn4)cc3)c12 [Formula (3), N-[3-[2-[2-[3-[5-[(3aS,4S,6aR)-2-oxo-1,3,3a,4,6,6a-hexahydrothieno[3,4-d]imidazol-4-yl]pentanoylamino]propoxy]ethoxy]ethoxy]propyl]-N′-[2-[4-[(E)-4-[(2S)-2-[8-amino-1-[4-(2-pyridylcarbamoyl)phenyl]imidazo[1,5-a]pyrazin-3-yl]-1-piperidyl]-4-oxo-but-2-enyl]piperazin-1-yl]ethyl]pentanediamide] |
| 1.5 nM |  |  |  | COc1ccc(-c2ccc3n2[B-](F)(F)[N+]2=C(C)C(CCC(=O)NCCN4CCN(C/C=C/C(=O)N5CCC[C@H]5c5nc(-c6ccc(C(=O)Nc7ccccn7)cc6)c6c(N)nccn56)CC4)=C(C)C2=C3)cc1 [Formula (4)] |
|  |  | clear binding | minimal | Cc1cc(C)n2c1C=C1C=CC(CCC(=O)NCCN3CCN(C/C=C/C(=O)N4CCC[C@H]4c4nc(-c5ccc(C(=O)Nc6ccccn6)cc5)c5c(N)nccn45)CC3)=[N+]1[B-]2(F)F [Formula (5)] |
|  |  | clear binding | no detectable binding | Nc1nccn2c([C@@H]3CCCN3C(=O)/C=C/CN3CCN(CCNC(=O)CCCC(=O)NCCCOCCOCCOCCCNC(=O)CCCC[C@@H]4SC[C@@H]5NC(=O)N[C@@H]54)CC3)nc(-c3ccc(C(=O)Nc4nccs4)cc3)c12 [Formula (6)] |
